Laboratory results taken from patent publication US10494368B2, “Pesticidally active tetracyclic derivatives with sulfur containing substituents” (Syngenta Participations AG, priority 2015, dated 2019).

Assays:
Type in all cases: in vivo
[1] = tested on: Diabrotica Balteata (Corn Root Worm); assay: Diabrotica balteata on maize sprouts, spray; settings: 96 h, application rate 200 ppm, L2 larvae on maize sprouts, 4 days after infestation, read-out: effect in at least one of the two categories (mortality or growth inhibition)
Procedure: Maize sprouts placed onto an agar layer in 24-well microtiter plates were treated with aqueous test solutions prepared from 10′000 ppm DMSO stock solutions by spraying. After drying, the plates were infested with L2 larvae (6 to 10 per well). The samples were assessed for mortality and growth inhibition in comparison to untreated samples 4 days after infestation.
(§1) The following compounds gave an effect of at least 80% in at least one of the two categories (mortality or growth inhibition) at an application rate of 200 ppm: […]

[2] = tested on: Euschistus heros (Neotropical Brown Stink Bug); assay: Euschistus heros on soybean leaves, spray; settings: 120 h, application rate 200 ppm, N2 nymphs on soybean leaves, 5 days after infestation, read-out: effect in at least one of the two categories (mortality or growth inhibition)
Procedure: Soybean leaves on agar in 24-well microtiter plates were sprayed with aqueous test solutions prepared from 10′000 ppm DMSO stock solutions. After drying the leaves were infested with N2 nymphs. The samples were assessed for mortality and growth inhibition in comparison to untreated samples 5 days after infestation.
as §1

[3] = tested on: Myzus persicae (Green Peach Aphid); assay: Myzus persicae intrinsic activity (sucrose solution, Parafilm); settings: 120 h, test rate 12 ppm, 5 days after infestation
Procedure: Intrinsic activity Test compounds prepared from 10′000 ppm DMSO stock solutions were applied by pipette into 24-well microtiter plates and mixed with sucrose solution. The plates were closed with a stretched Parafilm. A plastic stencil with 24 holes was placed onto the plate and infested pea seedlings were placed directly on the Parafilm. The infested plate was closed with a gel blotting paper and another plastic stencil and then turned upside down. The samples were assessed for mortality 5 days after infestation.

[4] = tested on: Plutella xylostella (Diamond Back Moth); assay: Plutella xylostella on artificial diet; settings: 120 h, application rate 200 ppm, L2 larvae on artificial diet, 5 days after infestation, read-out: effect in at least one of the two categories (mortality or growth inhibition)
Procedure: 24-well microtiter plates with artificial diet were treated with aqueous test solutions prepared from 10′000 ppm DMSO stock solutions by pipetting. After drying, the plates were infested with L2 larvae (10 to 15 per well). The samples were assessed for mortality and growth inhibition in comparison to untreated samples 5 days after infestation.
as §1

[5] = tested on: Spodoptera littoralis (Egyptian Cotton Leaf Worm); assay: Spodoptera littoralis on cotton leaf discs, spray; settings: foliar, 72 h, application rate 200 ppm, L1 larvae on cotton leaf discs, 3 days after infestation
Procedure: Cotton leaf discs were placed onto agar in 24-well microtiter plates and sprayed with aqueous test solutions prepared from 10′000 ppm DMSO stock solutions. After drying the leaf discs were infested with five L1 larvae. The samples were assessed for mortality, anti-feeding effect, and growth inhibition in comparison to untreated samples 3 days after infestation. Control of Spodoptera littoralis by a test sample is given when at least one of the categories mortality, anti-feedant effect, and growth inhibition is higher than the untreated sample.

[6] = tested on: Spodoptera littoralis (Egyptian Cotton Leaf Worm); assay: Spodoptera littoralis, uptake by lettuce roots from agar; settings: 144 h, test rate 12.5 ppm, compound absorbed by lettuce roots, 6 days after infestation, read-out: effect in at least one of the three categories (mortality, anti-feeding, or growth inhibition)
Source text: Test compounds were applied by pipette from 10′000 ppm DMSO stock solutions into 24-well plates and mixed with agar. Lettuce seeds were placed onto the agar and the multi well plate was closed by another plate which contained also agar. After 7 days the compound was absorbed by the roots and the lettuce grew into the lid plate. The lettuce leaves were then cut off into the lid plate. Spodoptera eggs were pipetted through a plastic stencil onto a humid gel blotting paper and the lid plate was closed with it. The samples were assessed for mortality, anti-feedant effect and growth inhibition in comparison to untreated samples 6 days after infestation.
The following compounds gave an effect of at least 80% in at least one of the three categories (mortality, anti-feeding, or growth inhibition) at a test rate of 12.5 ppm: A3, A4, A5, A6, A8, A10, B3, B4, B5 and C2.

[7] = tested on: Aedes aegypti (Yellow Fever Mosquito); assay: Aedes aegypti adult contact test on dried deposits; settings: application rate 200 ppm in ethanol, adult females, after 48 h and/or 24 h
Procedure: Test solutions, at an application rate of 200 ppm in ethanol, were applied to 12 well tissue culture plates. Once the deposits were dry, five, two to five day old adult female Aedes aegypti were added to each well, and sustained with a 10% sucrose solution in a cotton wool plug. Assessment of knockdown was made one hour after introduction, and mortality was assessed at 24 and 48 hours after introduction.
The following compounds gave at least 80% control of Aedes aegypti after 48 h and/or 24 h: […]

[8] = tested on: Tetranychus urticae (Two-Spotted Spider Mite); assay: Tetranychus urticae feeding/contact activity on bean leaf discs; settings: foliar, 192 h
Procedure: Feeding/contact activity Bean leaf discs on agar in 24-well microtiter plates were sprayed with aqueous test solutions prepared from 10′000 ppm DMSO stock solutions. After drying the leaf discs were infested with a mite population of mixed ages. The samples were assessed for mortality on mixed population (mobile stages) 8 days after infestation.

[9] = tested on: Bemisia tabaci (Cotton White Fly); assay: Bemisia tabaci feeding/contact activity on cotton leaf discs; settings: foliar, 144 h, application rate 200 ppm, adult white flies on cotton leaf discs, 6 days after incubation
Procedure: Feeding/contact activity Cotton leaf discs were placed on agar in 24-well microtiter plates and sprayed with aqueous test solutions prepared from 10′000 ppm DMSO stock solutions. After drying the leaf discs were infested with adult white flies. The samples were checked for mortality 6 days after incubation.

[10] = tested on: Myzus persicae (Green Peach Aphid); assay: Myzus persicae feeding/contact activity on sunflower leaf discs; settings: foliar, 144 h, application rate 200 ppm, aphid population of mixed ages on sunflower leaf discs, 6 days after infestation
Procedure: Feeding/Contact activity Sunflower leaf discs were placed onto agar in a 24-well microtiter plate and sprayed with aqueous test solutions prepared from 10′000 ppm DMSO stock solutions. After drying, the leaf discs were infested with an aphid population of mixed ages. The samples were assessed for mortality 6 days after infestation.

CCSc1c(-c2nc3cc(C(F)(F)F)ncc3n2C)sc2cc(C(F)(F)F)ccc12 [Compound B3, 2-[3-ethylsulfanyl-6-(trifluoromethyl)benzothiophen-2-yl]-3-methyl-6-(trifluoromethyl)imidazo[4,5-c]pyridine]
≥ 80%: percent effect (mortality or growth inhibition) at 200 ppm [1] | percent effect (mortality or growth inhibition) at 200 ppm [2] | mortality at 12 ppm [3] | percent effect (mortality or growth inhibition) at 200 ppm [4] | percent control (mortality, anti-feedant effect or growth inhibition) at 200 ppm [5] | percent effect (mortality, anti-feeding or growth inhibition) at 12.5 ppm [6] | pest or weed control at 200 ppm [7]

CCSc1c(-c2nc3cc(SC(F)(F)F)cnc3n2C)sc2cc(Br)ccc12 [Compound A3, 2-(6-bromo-3-ethylsulfanyl-benzothiophen-2-yl)-3-methyl-6-(trifluoromethylsulfanyl)imidazo[4,5-b]pyridine]
≥ 80%: percent effect (mortality or growth inhibition) at 200 ppm [1] | percent effect (mortality or growth inhibition) at 200 ppm [2] | percent effect (mortality or growth inhibition) at 200 ppm [4] | percent control (mortality, anti-feedant effect or growth inhibition) at 200 ppm [5] | percent effect (mortality, anti-feeding or growth inhibition) at 12.5 ppm [6] | mortality at 200 ppm [8] | pest or weed control at 200 ppm [7]

CCS(=O)(=O)c1c(-c2nc3cc(SC(F)(F)F)cnc3n2C)sc2cc(Br)ccc12 [Compound A4, 2-(6-bromo-3-ethylsulfonyl-benzothiophen-2-yl)-3-methyl-6-(trifluoromethylsulfanyl)imidazo[4,5-b]pyridine]
≥ 80%: mortality at 200 ppm [9] | percent effect (mortality or growth inhibition) at 200 ppm [1] | percent effect (mortality or growth inhibition) at 200 ppm [2] | mortality at 200 ppm [10] | percent effect (mortality or growth inhibition) at 200 ppm [4] | percent control (mortality, anti-feedant effect or growth inhibition) at 200 ppm [5] | percent effect (mortality, anti-feeding or growth inhibition) at 12.5 ppm [6] | pest or weed control at 200 ppm [7]

CCS(=O)(=O)c1c(-c2nc3cc(C(F)(F)F)ncc3n2C)sc2cc(C(F)(F)F)ccc12 [Compound B4, 2-[3-ethylsulfonyl-6-(trifluoromethyl)benzothiophen-2-yl]-3-methyl-6-(trifluoromethyl) imidazo[4,5-c]pyridine]
≥ 80%: mortality at 200 ppm [9] | percent effect (mortality or growth inhibition) at 200 ppm [1] | percent effect (mortality or growth inhibition) at 200 ppm [2] | mortality at 200 ppm [10] | percent effect (mortality or growth inhibition) at 200 ppm [4] | percent control (mortality, anti-feedant effect or growth inhibition) at 200 ppm [5] | percent effect (mortality, anti-feeding or growth inhibition) at 12.5 ppm [6] | pest or weed control at 200 ppm [7]

CCSc1c(-c2nc3cnc(C(F)(F)F)cc3n2C)sc2ccccc12 [Compound B1, 2-(3-ethylsulfanylbenzothiophen-2-yl)-1-methyl-6-(trifluoromethyl)imidazo[4,5-c]pyridine]
≥ 80%: percent effect (mortality or growth inhibition) at 200 ppm [1] | mortality at 200 ppm [10] | mortality at 12 ppm [3] | percent effect (mortality or growth inhibition) at 200 ppm [4]

CCS(=O)(=O)c1c(-c2nc3cc(SC(F)(F)F)ncc3n2C)sc2cc(Br)ccc12 [Compound B5, 2-(6-bromo-3-ethylsulfonyl-benzothiophen-2-yl)-3-methyl-6-(trifluoromethylsulfanyl)imidazo[4,5-c]pyridine]
≥ 80%: mortality at 200 ppm [9] | percent effect (mortality or growth inhibition) at 200 ppm [1] | percent effect (mortality or growth inhibition) at 200 ppm [2] | mortality at 200 ppm [10] | percent effect (mortality or growth inhibition) at 200 ppm [4] | percent control (mortality, anti-feedant effect or growth inhibition) at 200 ppm [5] | percent effect (mortality, anti-feeding or growth inhibition) at 12.5 ppm [6] | pest or weed control at 200 ppm [7]
